Assay results reported in ChEMBL document CHEMBL1201862, “PubChem BioAssay data set” (2004).
The source made the active and inactive calls.

Columns and labels:
Bcl-2-like protein 10 = Bcl-2-like protein 10 (Homo sapiens, UniProt Q9HD36); test: Bcl-B/TR3 peptide binding disruption – biochemical, fluorescence polarization, FITC-TR3 peptide, selectivity assay for Bfl-1 inhibitor project, primary screen (AID 748);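 note: fluorescence polarization from a fluorescein-labelled TR3 peptide binding purified Bcl-B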
Estrogen receptor beta [1] = target: T1, Estrogen receptor beta (Homo sapiens, UniProt Q92731);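 note: recombinant ER-beta bound to coactivator SRC1 peptide in presence of estradiol agonist; inhibitors block coactivator peptide binding and lower the FRET signal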
[2] = viability loss in THP-1 monocytes – THP-1 cells, cytotoxicity control for Vif-APOBEC3G degradation inhibitor project, dose response (AID 1117359); format: functional; conditions: THP-1
Estrogen receptor beta [3] = target: T1, Estrogen receptor beta; test: blockers of SRC-3 recruitment to ERβ – biochemical, ELISA, streptavidin-HRP readout, orthogonal assay, confirmation (AID 1060)
[4] = tested on: Streptococcus sp. 'group A'; test: Streptococcus pyogenes SK(-)GAS viability under kanamycin – luminescence, BacTiterGlo, confirmation, counter-screen for streptokinase expression inhibitor project, dose response (AID 1900); format: functional, organism-based
Streptococcus = test: GAS UMAA2166 growth inhibition – luminescence, BacTiterGlo, counter-screen for streptokinase expression inhibitor project, dose response (AID 1915); format: functional, organism-based;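 note: potency for reduction of bacterial viability or growth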
cells = format: functional
[5] = Vero E6 cell cytotoxicity, dose response, cytotoxicity control for non-replicating M. tuberculosis project, secondary assay (AID 492998); format: functional, VeroE6; conditions: Vero C1008
Streptokinase A = target: T2, Streptokinase A (Streptococcus pyogenes serotype M1, UniProt P10520); test: viability-normalized secreted streptokinase activity reduction – plasminogen activation absorbance, OD405, dose response (AID 1914); format: functional, Streptococcus pyogenes M1 GAS;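 note: secreted streptokinase activity via plasminogen activation per viability signal from cell pellet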
T2 sequence (P10520 whole entry): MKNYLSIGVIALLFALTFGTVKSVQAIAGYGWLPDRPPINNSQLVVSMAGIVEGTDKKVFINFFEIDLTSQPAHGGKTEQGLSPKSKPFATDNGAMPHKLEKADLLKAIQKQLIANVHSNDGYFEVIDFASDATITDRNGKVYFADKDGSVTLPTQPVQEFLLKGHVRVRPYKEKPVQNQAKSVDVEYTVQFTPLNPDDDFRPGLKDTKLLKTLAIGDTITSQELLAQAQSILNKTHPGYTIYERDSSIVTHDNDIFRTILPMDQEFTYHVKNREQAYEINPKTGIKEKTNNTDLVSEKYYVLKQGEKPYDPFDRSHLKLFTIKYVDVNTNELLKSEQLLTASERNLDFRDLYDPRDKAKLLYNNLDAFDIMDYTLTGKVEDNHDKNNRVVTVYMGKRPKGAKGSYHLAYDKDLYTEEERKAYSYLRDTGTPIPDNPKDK

[6] = HepG2 cell cytotoxicity, dose response, cytotoxicity control for non-replicating M. tuberculosis project (AID 489018); format: functional; conditions: Mycobacterium tuberculosis
HEK293 [7] = test: cells; conditions: Homo sapiens
[8] = target: T3, Nucleotide-binding oligomerization domain-containing protein 1 (Homo sapiens, UniProt Q9Y239); test: blockers of NOD1 pathway activity – revised, SAR follow-up (AID 2333); format: functional
T3 sequence (Q9Y239 whole entry): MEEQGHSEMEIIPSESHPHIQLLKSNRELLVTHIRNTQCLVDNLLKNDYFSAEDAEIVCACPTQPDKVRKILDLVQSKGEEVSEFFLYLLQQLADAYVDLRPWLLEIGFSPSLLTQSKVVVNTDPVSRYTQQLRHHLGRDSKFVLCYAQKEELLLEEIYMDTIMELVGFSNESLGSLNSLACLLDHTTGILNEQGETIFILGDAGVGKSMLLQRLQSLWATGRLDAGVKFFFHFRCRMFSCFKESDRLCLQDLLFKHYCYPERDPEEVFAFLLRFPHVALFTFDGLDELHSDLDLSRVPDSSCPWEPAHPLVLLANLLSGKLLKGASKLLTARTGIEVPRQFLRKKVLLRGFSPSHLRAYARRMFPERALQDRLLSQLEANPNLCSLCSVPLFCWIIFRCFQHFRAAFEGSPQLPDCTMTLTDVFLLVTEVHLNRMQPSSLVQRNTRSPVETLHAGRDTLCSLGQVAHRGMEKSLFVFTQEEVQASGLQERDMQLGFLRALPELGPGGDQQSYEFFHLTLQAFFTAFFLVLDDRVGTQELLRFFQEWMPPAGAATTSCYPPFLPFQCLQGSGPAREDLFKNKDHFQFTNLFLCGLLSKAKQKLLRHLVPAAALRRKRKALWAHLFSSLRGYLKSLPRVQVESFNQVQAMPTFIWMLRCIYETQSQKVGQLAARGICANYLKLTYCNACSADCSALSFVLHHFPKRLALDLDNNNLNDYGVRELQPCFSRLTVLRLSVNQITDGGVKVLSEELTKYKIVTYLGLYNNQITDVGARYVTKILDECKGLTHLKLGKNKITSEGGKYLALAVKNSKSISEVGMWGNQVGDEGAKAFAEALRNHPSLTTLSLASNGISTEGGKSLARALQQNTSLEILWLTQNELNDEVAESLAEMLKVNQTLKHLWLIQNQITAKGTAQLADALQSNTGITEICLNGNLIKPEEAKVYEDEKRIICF

[9] = target: T4, Nucleotide-binding oligomerization domain-containing protein 2 (Homo sapiens, UniProt Q9HC29); test: PubChem AID 2334; format: functional
Tumor necrosis factor = Tumor necrosis factor (Homo sapiens, UniProt P01375); test: analog potency on TNFa NF-kB signaling – cell-based, revised, SAR follow-up (AID 2337); format: functional
[10] = target: T4, Nucleotide-binding oligomerization domain-containing protein 2; test: inhibition of NOD2-driven NF-kB reporter – cell-based, luminescence, uHTS, HEK293 (AID 1566); format: functional
HEK293 [11] = test: cells; format: functional, cell-based; conditions: Homo sapiens
HEK293 [12] = test: cells; format: functional, cell-based; conditions: Homo sapiens; remark: listed apart in the source
[13] = target: T5, Corticotropin-releasing factor receptor 2/Corticotropin-releasing factor-binding protein (Homo sapiens, UniProt P24387+Q13324); test: activators of CRF receptor 2 with binding protein – uHTS hits, confirmation (AID 602473); format: functional; conditions: read-out: EC50_Mean
T5 sequence (Q13324 whole entry): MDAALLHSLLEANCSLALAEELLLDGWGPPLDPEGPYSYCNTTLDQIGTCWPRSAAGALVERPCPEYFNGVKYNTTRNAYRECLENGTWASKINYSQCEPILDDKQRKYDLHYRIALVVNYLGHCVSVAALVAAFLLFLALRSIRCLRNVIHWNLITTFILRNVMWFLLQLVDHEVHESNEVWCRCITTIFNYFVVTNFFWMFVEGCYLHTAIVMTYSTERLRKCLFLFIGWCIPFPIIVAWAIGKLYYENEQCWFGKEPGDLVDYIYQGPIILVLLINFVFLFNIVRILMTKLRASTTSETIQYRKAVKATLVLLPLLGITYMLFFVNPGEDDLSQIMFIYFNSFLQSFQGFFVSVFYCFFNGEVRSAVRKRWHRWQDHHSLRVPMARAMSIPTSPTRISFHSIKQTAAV
T5 sequence (P24387 whole entry): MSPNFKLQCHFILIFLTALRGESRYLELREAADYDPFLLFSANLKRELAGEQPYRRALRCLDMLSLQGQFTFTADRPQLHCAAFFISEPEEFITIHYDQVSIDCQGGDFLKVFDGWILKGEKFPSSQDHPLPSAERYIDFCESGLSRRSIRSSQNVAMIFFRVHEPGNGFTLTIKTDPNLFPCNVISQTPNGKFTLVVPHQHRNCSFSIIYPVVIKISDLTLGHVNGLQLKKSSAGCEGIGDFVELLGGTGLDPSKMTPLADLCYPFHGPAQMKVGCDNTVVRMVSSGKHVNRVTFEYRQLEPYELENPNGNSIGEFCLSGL

[14] = target: T5, Corticotropin-releasing factor receptor 2/Corticotropin-releasing factor-binding protein; test: Dose Response confirmation of uHTS hits for small molecule antagonists of the CRF-binding protein and CRF-R2 receptor complex.; format: functional; conditions: read-out: IC50_Mean
HEK293 [15] = test: cells; format: functional, cell-based; conditions: Homo sapiens; remark: listed apart in the source
[16] = target: T6, Heat shock factor protein 1 (Mus musculus, UniProt P38532); test: enhancement of HSF1-driven luciferase signal – cell-based, NIH3T3, luminescence, dose retest, confirmation (AID 435004); format: functional;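 note: stress induced by proteasome inhibitor MG132 added 30 min after compound; luciferase reporter driven by HSF1 response element in NIH3T3 cells; actives raise luminescence as potentiators of the MG132 stress response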
T6 sequence (P38532 whole entry): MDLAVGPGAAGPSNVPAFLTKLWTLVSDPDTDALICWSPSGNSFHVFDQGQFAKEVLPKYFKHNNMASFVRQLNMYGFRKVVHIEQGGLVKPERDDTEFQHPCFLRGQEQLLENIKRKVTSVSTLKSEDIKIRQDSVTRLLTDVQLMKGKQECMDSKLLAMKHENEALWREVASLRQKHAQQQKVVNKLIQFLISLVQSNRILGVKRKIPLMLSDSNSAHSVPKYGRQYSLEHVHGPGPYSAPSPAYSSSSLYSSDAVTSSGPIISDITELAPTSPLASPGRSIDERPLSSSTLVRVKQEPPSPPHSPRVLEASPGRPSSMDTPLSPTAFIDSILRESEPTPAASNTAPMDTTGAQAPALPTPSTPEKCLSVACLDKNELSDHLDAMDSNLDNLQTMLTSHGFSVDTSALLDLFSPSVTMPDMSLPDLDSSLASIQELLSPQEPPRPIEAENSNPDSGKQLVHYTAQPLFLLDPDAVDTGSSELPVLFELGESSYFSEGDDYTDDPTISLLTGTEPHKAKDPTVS

HEK293 [17] = test: NOD2 signaling inhibitors in MDP-stimulated cells, cell-based, uHTS, luminescence (AID 2001); format: functional; conditions: Homo sapiens
HEK293 [18] = test: inhibition of NOD1-driven NF-kB reporter – cell-based, luminescence, uHTS, primary screen (AID 1578); format: functional; conditions: Homo sapiens
[19] = viability of HCT116 lacking mutant beta-catenin – cell-based, human colon tumor, dose response (AID 1045); format: functional;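 note: HCT116 colon tumor cells with beta catenin knocked out; cells exposed to compound for 60 hours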
X-box-binding protein 1 = X-box-binding protein 1 (Homo sapiens, UniProt P17861); format: functional, Cricetulus griseus;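 note: confirmatory dose-response counter-screen serving a CHOP assay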
[20] = viability of PTEN-deleted HCT116 cells – cell-based, HCT116 PTEN knockout, dose response (AID 1047); format: functional;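 note: HCT116 colon tumor cells with PTEN knocked out; cells exposed to compound for 60 hours before readout; potency for loss of cell viability measured by luminescence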

Sequence of Tumor necrosis factor (P01375 whole entry, the tested form may be a part): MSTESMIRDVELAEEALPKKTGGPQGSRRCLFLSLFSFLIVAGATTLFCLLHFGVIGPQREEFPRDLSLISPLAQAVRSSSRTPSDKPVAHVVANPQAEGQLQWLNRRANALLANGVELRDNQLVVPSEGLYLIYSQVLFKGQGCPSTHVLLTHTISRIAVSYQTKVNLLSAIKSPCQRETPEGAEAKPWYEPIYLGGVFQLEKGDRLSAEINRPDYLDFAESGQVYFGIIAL
T4 sequence (Q9HC29 whole entry, the tested form may be a part): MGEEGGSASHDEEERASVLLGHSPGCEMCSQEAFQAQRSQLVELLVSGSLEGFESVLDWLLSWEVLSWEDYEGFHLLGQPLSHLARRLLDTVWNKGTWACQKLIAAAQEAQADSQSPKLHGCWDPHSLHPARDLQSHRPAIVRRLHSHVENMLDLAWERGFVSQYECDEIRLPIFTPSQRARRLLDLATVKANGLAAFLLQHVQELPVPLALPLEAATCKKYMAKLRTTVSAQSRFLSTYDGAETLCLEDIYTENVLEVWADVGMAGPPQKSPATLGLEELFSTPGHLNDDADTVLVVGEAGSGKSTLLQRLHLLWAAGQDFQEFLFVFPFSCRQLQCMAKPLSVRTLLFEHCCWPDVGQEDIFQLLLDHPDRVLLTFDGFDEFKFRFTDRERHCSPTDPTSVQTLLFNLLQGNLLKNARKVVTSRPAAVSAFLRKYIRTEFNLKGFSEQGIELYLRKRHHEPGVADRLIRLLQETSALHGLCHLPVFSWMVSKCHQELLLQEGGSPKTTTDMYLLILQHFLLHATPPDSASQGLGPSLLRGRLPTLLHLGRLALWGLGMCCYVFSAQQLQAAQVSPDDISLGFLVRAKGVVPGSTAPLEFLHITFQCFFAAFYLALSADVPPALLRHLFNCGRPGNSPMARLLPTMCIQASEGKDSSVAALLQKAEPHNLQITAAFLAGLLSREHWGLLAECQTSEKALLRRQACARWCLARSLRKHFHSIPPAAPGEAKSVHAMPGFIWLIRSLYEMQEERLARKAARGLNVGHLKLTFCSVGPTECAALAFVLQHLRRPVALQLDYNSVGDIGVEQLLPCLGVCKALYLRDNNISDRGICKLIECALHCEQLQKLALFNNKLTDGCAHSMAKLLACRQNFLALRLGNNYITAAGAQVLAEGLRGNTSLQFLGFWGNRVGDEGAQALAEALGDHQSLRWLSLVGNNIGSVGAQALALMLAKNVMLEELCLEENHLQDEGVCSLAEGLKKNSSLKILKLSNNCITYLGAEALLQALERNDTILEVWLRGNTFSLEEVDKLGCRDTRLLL
T1 sequence (Q92731 whole entry): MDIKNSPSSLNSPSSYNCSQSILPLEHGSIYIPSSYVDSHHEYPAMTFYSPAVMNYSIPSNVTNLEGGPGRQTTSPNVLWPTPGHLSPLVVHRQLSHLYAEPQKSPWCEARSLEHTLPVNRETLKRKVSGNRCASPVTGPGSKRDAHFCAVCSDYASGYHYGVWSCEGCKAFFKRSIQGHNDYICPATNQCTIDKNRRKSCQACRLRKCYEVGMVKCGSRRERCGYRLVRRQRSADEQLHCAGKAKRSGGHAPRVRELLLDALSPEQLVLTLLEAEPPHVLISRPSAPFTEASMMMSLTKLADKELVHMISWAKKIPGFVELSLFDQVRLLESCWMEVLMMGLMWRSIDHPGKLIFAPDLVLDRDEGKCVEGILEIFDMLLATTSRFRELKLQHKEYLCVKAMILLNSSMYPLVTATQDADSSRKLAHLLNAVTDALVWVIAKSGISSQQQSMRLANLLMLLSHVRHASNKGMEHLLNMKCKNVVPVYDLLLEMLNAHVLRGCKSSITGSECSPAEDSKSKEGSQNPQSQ
Sequence of Bcl-2-like protein 10 (Q9HD36 whole entry): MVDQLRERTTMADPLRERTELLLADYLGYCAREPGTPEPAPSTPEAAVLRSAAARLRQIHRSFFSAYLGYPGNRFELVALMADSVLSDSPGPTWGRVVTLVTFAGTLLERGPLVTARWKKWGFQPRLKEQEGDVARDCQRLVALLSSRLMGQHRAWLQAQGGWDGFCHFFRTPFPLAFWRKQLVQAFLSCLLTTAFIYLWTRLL
Sequence of X-box-binding protein 1 (P17861 whole entry): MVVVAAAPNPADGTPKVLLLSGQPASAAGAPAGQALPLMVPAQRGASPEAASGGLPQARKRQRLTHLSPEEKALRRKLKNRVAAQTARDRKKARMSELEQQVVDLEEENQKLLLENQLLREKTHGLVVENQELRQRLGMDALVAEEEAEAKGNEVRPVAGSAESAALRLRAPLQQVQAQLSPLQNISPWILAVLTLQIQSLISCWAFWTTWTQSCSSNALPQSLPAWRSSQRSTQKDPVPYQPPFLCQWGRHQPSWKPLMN

In the case of `O=C(CSc1ccc(Cl)cc1)c1ccco1`, the IC50 (Bcl-2-like protein 10) was 25.5 µM (active), the IC50 (Estrogen receptor beta [1]) was < 1.56 µM (active) and the CC50 [2] was > 40 µM (active). For the same compound, the IC50 (Estrogen receptor beta [3]) was 17.9 µM (not active).

For `COc1ccc(CCNc2nc(-c3ccccn3)cs2)cc1OC`, the EC50 [4] was 14.3 µM (active), the EC50 (Streptococcus) was > 150 µM (not active) and the IC50 (cells) was 1.14 µM (active). The CC50 [5] was 14.7 µM (active), the EC50 (Streptokinase A) was > 150 µM (not active) and the CC50 [6] was > 20 µM (active).

For `O=C(C1CC1)N1CCc2cc(S(=O)(=O)N3CCN(c4ccc(Cl)cc4)CC3)ccc21`, the IC50 (HEK293 [7]) was > 20 µM (inactive), the IC50 [8] was > 20 µM (inactive) and the IC50 [9] was > 20 µM (inactive). The IC50 (Tumor necrosis factor) was > 20 µM (inactive).

With `O=C(NC(=S)N1CCN(c2ccc(F)cc2)CC1)c1cccs1` the EC50 [10] was > 20 µM (inactive), the IC50 (HEK293 [7]) was > 20 µM (inactive) and the IC50 (HEK293 [11]) was > 20 µM (inactive). The IC50 [8] was 19.4 µM (active), the IC50 (HEK293 [12]) was > 20 µM (inactive) and the EC50 [13] was > 53 µM (inactive). The IC50 [14] was > 47.1 µM (inactive), the IC50 [9] was > 20 µM (inactive) and the IC50 (HEK293 [15]) was > 20 µM (inactive). For the same compound, the EC50 [16] was > 260 µM (inactive), the IC50 (Tumor necrosis factor) was > 20 µM (inactive) and the IC50 (HEK293 [17]) was 10 µM (inactive). The EC50 (HEK293 [18]) was > 20 µM (inactive).

For `Oc1[nH]c2ccccc2c1N=NC(S)=NCCc1ccccc1`, the EC50 [4] was 4.7 µM (active), the EC50 (Streptococcus) was 10.9 µM (active) and the EC50 [19] was 23 µM (active). The EC50 (Streptokinase A) was > 150 µM (not active), the “Absolute IC50 (XBP1)” value (X-box-binding protein 1) was 10 µM and the EC50 [20] was 24 µM (active).
